Reference: PubChem BioAssay AID651648 (Sanford-Burnham Center for Chemical Genomics, 2012)
The source made the active and inactive calls. How the calls were made is not given here.

molecular target: CRF-binding protein / CRF-R2 receptor complex (human); experiment: activators of CRF-R2 paired with CRF-BP – cell-based, 384-well, SAR follow-up (AID 651648); details: cells expressing CRF-BP/CRF-R2 complex, agonist read-out

SMILES	EC50
O=C(Nc1ccc(Br)cc1Cl)c1ccc2c(=O)n3c(nc2c1)CCC3	> 40 µM (inactive)
CCOc1ccccc1N(CC(=O)N1CCOCC1)S(=O)(=O)c1cccc(OC)c1	3.67 µM
CCOc1ccccc1N(CC(=O)N1CCOCC1)S(=O)(=O)c1ccc(Br)cc1OC(F)(F)F	7.02 µM
CCOc1cccc(N(CC(=O)N2CCOCC2)S(=O)(=O)c2ccc(OC)cc2)c1	> 20 µM (inactive)
CCOC(=O)c1cc2ccccc2n1CCN(CC)CC	> 20 µM (inactive)
O=C(O)CCNc1nc(-c2ccccc2)c2cc(Br)ccc2n1	> 20 µM (inactive)
CC(C)c1nc2c(c(=O)c3ccccc3n2C)c(=O)n1CCc1ccccc1	7.24 µM
Cc1ccc2nc(NCCC(=O)O)nc(-c3ccccc3)c2c1	> 20 µM (inactive)
CC(=O)Nc1ccc(Sc2ncccc2C(=O)Nc2ccc(C(F)(F)F)cc2)cc1	> 20 µM (inactive)
CC1(C)C(=O)OC(c2cccn2-c2ccc([N+](=O)[O-])cc2)C2(CCCCC2)C1=O (configuration not stated)	> 20 µM (inactive)
CC(=O)Nc1ccc(Sc2ncccc2C(=O)Nc2ccc(Br)cc2)cc1	15.5 µM
CC(=O)Nc1ccc(Sc2ncccc2C(=O)Nc2ccc(N(O)O)cc2)cc1	1.96 µM
CCNC(=S)NNC(=O)c1cccn(Cc2ccc(Cl)cc2Cl)c1=O	> 20 µM (inactive)
CCOC(=O)N1CCN(C(=O)c2c[nH]c3ccc(S(=O)(=O)N(C)c4cccc(C)c4)cc3c2=O)CC1	2.51 µM
CC(=O)Nc1ccc(Sc2ncccc2C(=O)Nc2cc(Cl)cc(Cl)c2)cn1	> 20 µM (inactive)
CCOc1ccc(N(CC(=O)N2CCOCC2)S(=O)(=O)c2ccc(OC)cc2)cc1	> 20 µM (inactive)
CC(=O)Nc1ccc(Sc2ncccc2C(=O)Nc2ccccc2Br)cc1	> 20 µM (inactive)

SMILES	EC50
O=C1Nc2ccccc2N(O)N1c1cc(-c2cccc(Cl)c2)no1	> 20 µM (inactive)
O=[N+]([O-])c1ccc(O)c(Nc2ncnc3ccc(Br)cc23)c1	> 20 µM (inactive)
COc1ccc(C(=O)CSc2nnn(-c3cccc(NC(C)=O)c3)n2)cc1	> 20 µM (inactive)
COc1ccc(C)cc1NC(=O)c1cccnc1Sc1ccc(NC(C)=O)cc1	> 20 µM (inactive)
O=C(Nc1ccc(SC(F)F)cc1)c1ccc2c(=O)n3c(nc2c1)CCC3	> 20 µM (inactive)
CC(=O)Nc1ccc(Sc2ncccc2C(=O)Nc2cc(C)cc(C)c2)cn1	> 20 µM (inactive)
CC(=O)Nc1ccc(Sc2ncccc2C(=O)Nc2ccccc2F)cc1	> 20 µM (inactive)
CC(=O)Nc1ccc(Sc2ncccc2C(=O)Nc2cccc(OC(F)(F)F)c2)cc1	> 20 µM (inactive)
O=c1c(/C=C(\O)c2ccc(F)cc2)nc2ccccc2n1-c1ccccc1	9.91 µM
CCOc1ccc(N(CC(=O)N2CCOCC2)S(=O)(=O)c2ccccc2)cc1	> 20 µM (inactive)
O=c1c(/C=C(\O)c2ccccc2)nc2ccccc2n1-c1ccccc1	8.1 µM
CCC1CCCCN1Cc1ccc(OC)c(C)c1 (configuration not stated)	> 20 µM (inactive)
Cc1cc(S(=O)(=O)c2cc3ccc(O)c(C)c3oc2=O)ccc1F	2.29 µM
Cc1sc(NC(=O)C2CCCCC2C(=O)O)c(C(N)=O)c1-c1ccc(C(C)(C)C)cc1 (configuration not stated)	9.52 µM
O=C(O)c1cc(Cl)ccc1-c1ccc(/C=C/c2cc(C(F)(F)F)[nH]c(=O)n2)o1	5.43 µM
Cc1cccc(Oc2ccc(NC(=O)c3ccccc3C(=O)O)cc2)c1C	> 20 µM (inactive)

Second part, the molecule after the results:

EC50	SMILES
0.473 µM	CCOc1ccccc1N(CC(=O)N1CCCCC1)S(=O)(=O)c1ccc(SC)cc1
> 20 µM (inactive)	CCOc1ccccc1N(CC(=O)N1CCCCCC1)S(=O)(=O)c1ccc(SC)cc1
> 20 µM (inactive)	Cc1nc2c(c(=O)c3ccccc3n2C)c(=O)n1C1CCCCCC1
3.78 µM	CCOc1ccccc1N(CC(=O)N1CCOCC1)S(=O)(=O)c1ccc(F)cc1
10.7 µM	COc1ccc(C)cc1N(CC(=O)N1CCOCC1)S(=O)(=O)c1ccccc1
4.77 µM	CCOc1ccccc1N(CC(=O)N1CCOCC1)S(=O)(=O)c1cccc(F)c1
> 20 µM (inactive)	CCc1ccccc1N(CC(=O)N1CCOCC1)S(=O)(=O)c1ccc(C)cc1
4.77 µM	CCOc1ccccc1N(CC(=O)N1CCOCC1)S(=O)(=O)c1ccccc1
> 20 µM (inactive)	CCOc1ccccc1N(CC(=O)N1CCCC1)S(=O)(=O)c1ccc(SC)cc1
> 20 µM (inactive)	Cc1ccccc1N(CC(=O)N1CCOCC1)S(=O)(=O)c1ccc(Cl)cc1
1.5 µM	CCOc1ccccc1N(CC(=O)N1CCOCC1)S(=O)(=O)c1ccc(Br)cc1
> 20 µM (inactive)	COc1ccccc1N(CC(=O)N1CCOCC1)S(=O)(=O)c1ccccc1
> 20 µM (inactive)	O=C(Nc1cc(S(=O)(=O)N2CCCCC2)ccc1O)c1ccccc1NS(=O)(=O)c1ccc(F)c(F)c1
> 20 µM (inactive)	Oc1ccc2ccccc2c1CN1CCCCC1
